Read-outs that look alike come from different tables or passages of the source.
Assays:
[1] = set-up: method as in Drzymala et al. [2015]; settings: ref Drzymala et al. [2015]; cited from earlier work
human androgen receptor [2] = molecular target: T1, human androgen receptor (Homo sapiens, UniProt P10275); assay type: cell-based
T1 construct: host or cells: Chinese hamster ovary (CHO) cells, AR-EcoScreen GR KO M1, stably transfected, glucocorticoid receptor knocked out
T1 sequence (P10275 1-920): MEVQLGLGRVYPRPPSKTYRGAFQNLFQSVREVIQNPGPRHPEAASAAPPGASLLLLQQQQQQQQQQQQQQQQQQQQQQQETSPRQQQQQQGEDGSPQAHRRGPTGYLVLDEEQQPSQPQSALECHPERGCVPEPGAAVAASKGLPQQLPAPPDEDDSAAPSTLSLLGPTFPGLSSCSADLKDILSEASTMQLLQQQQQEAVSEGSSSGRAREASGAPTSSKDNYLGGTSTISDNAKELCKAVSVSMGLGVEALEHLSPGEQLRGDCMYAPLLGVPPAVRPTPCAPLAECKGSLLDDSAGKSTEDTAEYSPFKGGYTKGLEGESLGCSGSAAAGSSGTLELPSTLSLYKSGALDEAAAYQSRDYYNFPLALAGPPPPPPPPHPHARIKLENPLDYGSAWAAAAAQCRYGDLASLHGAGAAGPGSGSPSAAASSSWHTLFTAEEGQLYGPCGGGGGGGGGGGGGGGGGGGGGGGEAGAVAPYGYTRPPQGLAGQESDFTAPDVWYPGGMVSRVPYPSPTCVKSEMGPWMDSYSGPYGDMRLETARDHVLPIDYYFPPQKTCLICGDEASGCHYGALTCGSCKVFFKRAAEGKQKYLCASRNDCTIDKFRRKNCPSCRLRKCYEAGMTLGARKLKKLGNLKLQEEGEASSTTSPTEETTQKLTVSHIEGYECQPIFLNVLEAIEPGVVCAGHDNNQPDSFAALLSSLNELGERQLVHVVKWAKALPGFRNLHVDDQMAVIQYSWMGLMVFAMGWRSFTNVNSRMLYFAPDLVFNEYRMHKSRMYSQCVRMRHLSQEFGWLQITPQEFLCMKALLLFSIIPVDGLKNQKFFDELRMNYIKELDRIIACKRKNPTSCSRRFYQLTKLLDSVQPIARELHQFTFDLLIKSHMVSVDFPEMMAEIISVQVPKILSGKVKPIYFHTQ

human androgen receptor [3] = molecular target: T1, human androgen receptor; assay type: cell-based; remark: listed apart in the source
estrogen receptor (ER) [4] = test system: estrogen receptor (ER)
estrogen receptor (ER) [5] = assay type: cell-based, human
[6] = set-up: method as in Drzymala et al. [2014]; settings: rat liver microsomes, presence of NADPH, after 60 min; ref Drzymala et al. [2014]; cited from earlier work
AR = test system: AR; set-up: method as in Molina-Molina et al. [2014]; settings: ref Molina-Molina et al. [2014], cited from earlier work; for AR antagonistic effect IC50: androgen-sensitive PALM cells
[7] = DON compounds, S9 + PHI + PHII cofactors
[8] = DON compounds, S9 + PHII cofactors
[9] = without exogenous MAS, initial concentration-range finding trials, 24 h
[10] = DON compounds, S9 + PHI + PHII cofactors, [95% CI]
[11] = DON compounds, S9 + PHII cofactors, [95% CI]
[12] = DON compounds, S9 alone, [95% CI]
[13] = DON compounds, no MAS, [95% CI]
[14] = ZEN compounds, S9 + PHI + PHII cofactors, [95% CI]
[15] = ZEN compounds, S9 + PHI cofactors, [95% CI]
[16] = ZEN compounds, S9 alone, [95% CI]
[17] = ZEN compounds, no MAS, [95% CI]
[18] = ZEN compounds, no MAS (S9 −, PHI −, PHII −), [95% CI]

SMILES: CC1CCCC(=O)CCC/C=C/c2cc(O)c(O)c(O)c2C(=O)O1 (stereo not shown) [15-OH-ZEN]
- Estrogenic potency compared to ZEN, set at 1 [1]: 0.02

SMILES: CC(=O)O[C@@H]1C[C@]2(C)[C@@]3(CO)[C@H](O)C(=O)C(C)=C[C@H]3O[C@H]1[C@@]21CO1 [3-Ac-DON, 3-acetyl deoxynivalenol]
- AR antagonism IC30 (human androgen receptor [2]; [7]): <LOD
- AR antagonism IC30 (human androgen receptor [2]; [8]): <LOD
- AR antagonism IC30 (human androgen receptor [2]; DON compounds, S9 alone): <LOD
- AR antagonism IC30 (human androgen receptor [2]; DON compounds, no MAS): <LOD
- AR antagonism IC30 (human androgen receptor [2]; [9]): <LOD
- AR agonism EC10 (human androgen receptor [3]; [10]): 0.91 [0.65,1.35] µM
- AR agonism EC10 (human androgen receptor [3]; [11]): 0.63 [0.52,0.78] µM
- AR agonism EC10 (human androgen receptor [3]; [12]): 1.07 [0.91,1.23] µM
- AR agonism EC10 (human androgen receptor [3]; [13]): 1.11 [0.95,1.26] µM
- AR agonism EC10 (human androgen receptor [3]; [9]): 1.31 µM
- Estrogenicity relative to α-ZEL (times lower) (estrogen receptor (ER) [4]): ~10^5 times
- ER agonism EC10 (estrogen receptor (ER) [4]; [7]): <LOD
- ER agonism EC10 (estrogen receptor (ER) [4]; [8]): <LOD
- ER agonism EC10 (estrogen receptor (ER) [4]; [12]): 0.53 [0.49,0.59] µM
- ER agonism EC10 (estrogen receptor (ER) [4]; [13]): 0.45 [0.41,0.49] µM
- ER agonism, response as % of the maximum response of E2 in the assay (estrogen receptor (ER) [4]; without MAS): 30%
- ER bioassay EC10 (estrogenic) (estrogen receptor (ER) [4]; without MAS, abstract): 310 nM
- ER agonism EC10 (estrogen receptor (ER) [4]; [9]): 310,000 pM
- ER antagonism IC30 (estrogen receptor (ER) [5]; [10]): <LOD
- ER antagonism IC30 (estrogen receptor (ER) [5]; [11]): <LOD
- ER antagonism IC30 (estrogen receptor (ER) [5]; [12]): <LOD
- ER antagonism IC30 (estrogen receptor (ER) [5]; [13]): <LOD
- ER antagonism IC30 (estrogen receptor (ER) [5]; [9]): <LOD

SMILES: C[C@H]1CCCC(=O)CCC/C=C/c2cc(O)cc(O)c2C(=O)O1 [ZEN, zearalenone]
- AR antagonism IC30 (human androgen receptor [2]; [14]): 18.0 [13.8,23.4] µM
- AR antagonism IC30 (human androgen receptor [2]; [15]): 7.33 [6.31,8.13] µM
- AR antagonism IC30 (human androgen receptor [2]; [16]): 2.14 [1.82,2.45] µM
- AR antagonism IC30 (human androgen receptor [2]; [17]): 2.37 [1.95,2.75] µM
- AR antagonism IC30 (human androgen receptor [2]; [9]): 3.30 µM
- Micronuclei formation (% MN) versus vehicle controls (TK6 cells; 5 h exposure, alone, with S9 alone or S9 with cofactors, ZEN 6.25 and 12.50 µM, DON 0.78 and 1.56 µM): neither ZEN nor DON alone or with the S9 alone or with cofactors had any statistically significant effect on % MN
- Micronuclei formation (% MN) versus vehicle control (TK6 cells; 24 h continuous exposure, without MAS, non-cytotoxic test concentrations): statistically significant increase in % MN
- Test concentration with statistically significant increase in % MN (highest non-cytotoxic test concentration) (TK6 cells; 24 h continuous exposure, without MAS, p-value of 0.0007): 12.5 µM
- Decrease of substrate concentration to (% remaining) [6]: approximately 40%
- AR agonism EC10 (human androgen receptor [3]; ZEN compounds, S9 + PHI + PHII cofactors): <LOD
- AR agonism EC10 (human androgen receptor [3]; ZEN compounds, S9 + PHI cofactors): <LOD
- AR agonism EC10 (human androgen receptor [3]; ZEN compounds, S9 alone): <LOD
- AR agonism EC10 (human androgen receptor [3]; ZEN compounds, no MAS): <LOD
- AR agonism EC10 (human androgen receptor [3]; [9]): <LOD
- Androgenic activities (AR; PALM cells, 40 h of exposure, concentrations up to 10 µM): no androgenic activities were detected
- AR antagonistic effect IC50 (AR): micromolar range
- ER agonism EC10 (estrogen receptor (ER) [4]; [14]): 6470 pM
- ER agonism EC10 (estrogen receptor (ER) [4]; [15]): 984 [740,1 279] pM
- ER agonism EC10 (estrogen receptor (ER) [4]; [16]): 63.3 [56.2,97.2] pM
- ER agonism EC10 (estrogen receptor (ER) [4]; [18]): 46.5 [29.5,72.4] pM
- ER agonism EC10 value range converted to a concentration range in a water sample (estrogen receptor (ER) [4]; converted from 30–40 pM): 0.01 to 0.012 ng/mL
- ER agonism EC10 converted to concentration in a water sample enriched 50 times (estrogen receptor (ER) [4]; water sample enriched 50 times): approximately 0.2 ng/L
- ER agonism EC10 (estrogen receptor (ER) [4]; [9]): 30 to 40 pM
- ER agonism EC10 (estrogen receptor (ER) [4]; without exogenous MAS, initial concentration-range finding trials, 24 h, listed as Zearalenone (ZEN)): 34.07 pM
- ER antagonism IC30 (estrogen receptor (ER) [5]; [15]): 10.3 [8.71,11.8] µM
- ER antagonism IC30 (estrogen receptor (ER) [5]; [16]): 3.41 [2.40,4.68] µM
- ER antagonism IC30 (estrogen receptor (ER) [5]; [17]): 2.92 [2.09,3.89] µM
- ER antagonism IC30 (estrogen receptor (ER) [5]; [9]): 2.85 µM

SMILES: CC(=O)OC[C@]12[C@H](O)C(=O)C(C)=C[C@H]1O[C@@H]1[C@H](O)C[C@@]2(C)[C@]12CO2 [15-Ac-DON, 15-acetyl deoxynivalenol]
- AR antagonism IC30 (human androgen receptor [2]; [7]): <LOD
- AR antagonism IC30 (human androgen receptor [2]; [8]): <LOD
- AR antagonism IC30 (human androgen receptor [2]; DON compounds, S9 alone): <LOD
- AR antagonism IC30 (human androgen receptor [2]; DON compounds, no MAS): <LOD
- AR antagonism IC30 (human androgen receptor [2]; [9]): <LOD
- AR agonism EC10 (human androgen receptor [3]; [10]): 0.52 [0.45,0.62] µM
- AR agonism EC10 (human androgen receptor [3]; [11]): 0.50 [0.45,0.56] µM
- AR agonism EC10 (human androgen receptor [3]; [12]): 0.70 [0.62,0.76] µM
- AR agonism EC10 (human androgen receptor [3]; [13]): 0.81 [0.74,0.87] µM
- AR agonism EC10 (human androgen receptor [3]; [9]): 0.77 µM
- ER agonism EC10 (estrogen receptor (ER) [4]; [7]): <LOD
- ER agonism EC10 (estrogen receptor (ER) [4]; [8]): <LOD
- ER agonism EC10 (estrogen receptor (ER) [4]; [12]): <LOD
- ER agonism EC10 (estrogen receptor (ER) [4]; [13]): <LOD
- ER agonism EC10 (estrogen receptor (ER) [4]; [9]): <LOD
- ER antagonism IC30 (estrogen receptor (ER) [5]; [10]): 0.48 [0.30,0.72] µM
- ER antagonism IC30 (estrogen receptor (ER) [5]; [11]): 0.24 [0.18,0.32] µM
- ER antagonism IC30 (estrogen receptor (ER) [5]; [12]): 1.11 [0.81,1.38] µM
- ER antagonism IC30 (estrogen receptor (ER) [5]; [13]): 1.09 [0.98, 1.20] µM
- ER antagonism IC30 (estrogen receptor (ER) [5]; [9]): 0.99 µM

SMILES: C[C@]12CC[C@@H]3c4ccc(O)cc4CC[C@H]3[C@@H]1CC[C@@H]2O [E2, 17β-estradiol, reference compound]
- ER agonistic activity after treatment of cells with only S9 (estrogen receptor (ER) [4]): reduction of ER agonistic activity

SMILES: C[C@H]1CCC[C@H](O)CCC/C=C/c2cc(O)cc(O)c2C(=O)O1 [α-ZEL, α-Zearalenol]
- AR agonism EC10 (human androgen receptor [3]): <LOD
- AR antagonistic effect IC50 (AR): micromolar range
- Estrogenic potency relative to ZEN (times more potent) (estrogen receptor (ER) [4]): ~10 times
- ER agonism EC10 (estrogen receptor (ER) [4]; [15]): 49.3 [30.2,75.9] pM
- ER agonism EC10 (estrogen receptor (ER) [4]; [16]): 4.24 [2.82,6.31] pM
- ER agonism EC10 (estrogen receptor (ER) [4]; [18]): 3.70 [2.51,5.37] pM
- ER agonism EC10 (estrogen receptor (ER) [4]; [9]): 3.59 pM
- ER antagonism IC30 (estrogen receptor (ER) [5]; [14]): 5.10 [2.88,8.13] µM
- ER antagonism IC30 (estrogen receptor (ER) [5]; [15]): 2.42 [1.35,3.63] µM
- ER antagonism IC30 (estrogen receptor (ER) [5]; [16]): 1.75 [0.69,3.02] µM
- ER antagonism IC30 (estrogen receptor (ER) [5]; [17]): 1.03 [0.33,1.78] µM
- ER antagonism IC30 (estrogen receptor (ER) [5]; [9]): 1.39 µM
